PMC6050274, “Buparlisib is a brain penetrable pan-PI3K inhibitor” (Scientific Reports, 2018)
Values joined by “and” are separate entries in the source; they are usually repeats but may differ in a detail not shown here. Equal values may be shown once. Read-outs that look alike come from different tables or passages of the source.

Tests used:
[1] = Plasma pharmacokinetics after i.v. and oral administration in male and female mice; assay type: in vivo, FVB mice; conditions: for bioavailability: p.o. (5 mg/kg) vs i.v. (2 mg/kg), read-out: F (oral bioavailability); for Vd/F: read-out: Vz/F
Procedure: Finally, we studied the pharmacokinetics of buparlisib in male and female mice and assessed the oral bioavailability in both genders by comparing the area-under-the-plasma concentration-time-curves (AUCs) following intravenous and oral administration. Both after oral and i.v. administration there was no difference in pharmacokinetics between male and female mice (Fig. 3C, Table 1).
The pharmacokinetics of buparlisib were analysed in WT, Abcg2^−/−, Abcb1a/b^−/− and Abcb1a/b; Abcg2^−/− FVB mice. All knockout mice strains have been developed within our institute[41]–[43]. For i.v. administration, buparlisib was dissolved in DMSO and injected at a dose of 2 mg/kg. For oral administration, buparlisib was formulated in DMSO:Cremophor EL:water (1:1:8 v/v/v) and administered at 1, 2 or 5 mg/kg as indicated. Tail vein bleeding was used to collect blood at intermediate time points, whereas at the last time point blood was drawn by cardiac puncture and various tissue were collected. Plasma was obtained from whole blood by centrifugation (5 min, 5,000 rpm, 4 °C). After weighing, tissues were homogenized using a FastPrep®-24 (MP-Biomedicals, NY) in 1% (w/v) bovine serum albumin in water. Buparlisib was extracted from plasma and tissue homogenate by liquid-liquid extraction with ethyl acetate using AZD8055 as an internal standard.
Buparlisib was measured in samples from in vitro transport assays and in vivo pharmacokinetic studies using an LC-MS/MS system comprised of an UltiMate 3000 LC Systems (Dionex, Sunnyvale, CA) and an API 4000 mass spectrometer (Sciex, Framingham, MA). Samples were run through a Securityguard C18 pre-column (Phenomenex, Utrecht, The Netherlands) prior to separation on a ZORBAX Extend-C18 column (Agilent, Santa Clara, CA). Elution was done using a in a 5 minute gradient from 20% to 95% B (mobile phase A was 0.1% HCOOH in water (v/v) and mobile phase B was methanol). 95% B was maintained for 3 min followed by re-equilibration at 20% B. Multiple reaction monitoring was performed at 411.3/367.2 (buparlisib) and 418.2/138.4 (AZD8055). Analyst® 1.6.2 software (AB Sciex; Foster City, CA) was used for system control and data analysis.
As described in detail before, CETA results were analysed with the General linear model repeated measures procedure of SPSS (v22; SPSS Inc, Chicago, IL)[25]. PK solver was used to determine pharmacokinetic parameters. The standard error of the oral bioavailability was calculated using the formula below: SEF=F(SEAUCp.o./AUCp.o.)^2+(SEAUCi.v./AUCi.v.)^2 Buparlisib concentrations in WT and transporter knockout mice in vivo were compared using one-way analysis of variance followed by post hoc Bonferroni tests. Statistical differences between the buparlisib PK parameters in male and female mice were calculated as Bonferroni corrected p-values using multiple Student’s t-tests. Differences were considered statistically significant when p < 0.05.

LLC-PK1 cells = test: Conventional transport assay (CTA), diffusion over a cellular monolayer; assay type: in vitro ADME, porcine; conditions: zosuquidar present, both directions, 100 nM
From the text: We first sought to investigate whether buparlisib (Fig. 1A) is transported by P-gp or BCRP in vitro using concentration equilibrium transport assays (CETAs). CETAs are sensitive assays to determine translocation over a cellular monolayer and are frequently used to determine substrate affinity for ABC transporters by comparing cell lines that overexpress ABC transporters with their parental counterparts[24]–[26]. Since P-gp and BCRP are apically located transporters, a prerequisite for detecting substrate affinity for these transporters in a CETA is the capacity of a molecule to penetrate cell membranes. We therefore first confirmed that buparlisib could efficiently diffuse over a cellular monolayer using a conventional transwell set-up. […]
Conventional bidirectional transport assays (CTAs) and concentration equilibrium transport assays (CETAs) were performed as described previously. […] Transwell leakiness was determined as Carboxyl-[^14C]-inulin translocation exceeding 1.5% per hour and these wells were excluded from the analysis.
To prepare buparlisib transport assay samples for LC-MS/MS analysis, 10 μL medium samples were mixed with 30 μL of acetonitrile:formic acid (100:1 v/v). After centrifugation, the supernatant was 5-fold diluted in water and the buparlisib concentration was measured using an LC-MS/MS system as described below.

[2] = FVB, mouse, plasma, iv, i.v. (2 mg/kg), female
[3] = FVB, mouse, plasma, iv, i.v. (2 mg/kg), male
[4] = FVB, mouse, plasma, po, p.o. (5 mg/kg), female
[5] = FVB, mouse, plasma, po, p.o. (5 mg/kg), male

Nc1cc(C(F)(F)F)c(-c2cc(N3CCOCC3)nc(N3CCOCC3)n2)cn1 [buparlisib]
Cmax [1, 2]: 1900 ± 410 ng/mL | half-life [1, 2]: 1.6 ± 0.07 h | Vd ([1]; FVB, mouse, plasma, iv, i.v. (2 mg/kg), female, read-out: Vz): 0.86 ± 0.14 L/kg | Cmax [1, 3]: 2100 ± 190 ng/mL | half-life [1, 3]: 1.67 ± 0.07 h | Vd ([1]; FVB, mouse, plasma, iv, i.v. (2 mg/kg), male, read-out: Vz): 0.8 ± 0.23 L/kg | concentration at 24 h ([1]; FVB, mouse, plasma, oral, mice, 5 mg/kg, read-out: plasma level after 24 h): < 1 ng/mL and < 2.4 nM | bioavailability ([1]; FVB, mouse, plasma, oral, female): 112 ± 21.1% | bioavailability ([1]; FVB, mouse, plasma, oral, male): 103 ± 26.1% | CL/F [1, 4]: 5.33 mL/min/kg | Cmax [1, 4]: 3000 ± 490 ng/mL | Tmax [1, 4]: 0.67 ± 0.39 h | half-life [1, 4]: 1.4 ± 0.04 h | Vd/F [1, 4]: 0.63 ± 0.08 L/kg | CL/F [1, 5]: 5.17 mL/min/kg | Cmax [1, 5]: 3300 ± 1300 ng/mL | Tmax [1, 5]: 1 h | half-life [1, 5]: 1.44 ± 0.06 h | Vd/F [1, 5]: 0.64 ± 0.03 L/kg | oral bioavailability ([1]; both genders, dose-corrected AUC oral vs i.v.): complete | Vd ([1]; both sexes, FVB, mouse, plasma, intravenous, 2 mg/kg, mice, read-out: volume of distribution): < 1 L/kg | CL ([1]; i.v. (2 mg/kg), female): 0.37 ± 0.06 L/kg^.h | Plasma AUC 0-∞ ([1]; i.v. (2 mg/kg), female): 5600 ± 860 ng/ml^.h | CL ([1]; i.v. (2 mg/kg), male): 0.33 ± 0.09 L/kg^.h | Plasma AUC 0-∞ ([1]; i.v. (2 mg/kg), male): 6300 ± 1500 ng/ml^.h | difference in pharmacokinetics between male and female mice ([1]; oral and i.v. administration): no difference | Plasma AUC 0-∞ ([1]; p.o. (5 mg/kg), female): 16000 ± 1700 ng/ml^.h | Plasma AUC 0-∞ ([1]; p.o. (5 mg/kg), male): 16000 ± 1200 ng/ml^.h | time to plateau to almost complete equilibrium between apical and basal compartments (LLC-PK1 cells): ≤ 4 h
